Holding throughout (experiment): NCI anticancer screen, dose series, 48 h
Assay [1] has as its system HCC 2998.
The subject of assay [2] is SR.
In assay [3] the test system is HOP-92.
Assay [4] concerns CCRF-CEM.
In assay [5] the test system is M14.
The subject of assay [6] is HCT-15.
In assay [7] the test system is A498.
Assay [8] deals with ACHN.
Assay [9] relates to A549.
In assay [10] the test system is MOLT-4.
Assay [11] deals with HT-29.
Assay [12] has as its system SF-295.
The subject of assay [13] is LOX IMVI.
The test system of assay [14] is NCI-H23.
The test system of assay [15] is Malme-3M.
The test system of assay [16] is 786-0.
Assay [17] has as its system SN12C.
In assay [18] the test system is OVCAR-8.
Assay [19] deals with COLO 205.
The test system of assay [20] is NCI-H522.

Each structure is given as a SMILES string.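 Compound exposure: 48 hours, 5 concentrations, 96-well plates. GI50 is the concentration that inhibits growth by half.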 Activity calls are given as the source filed them. No stated cut-off is given here; in the data, active = GI50 up to about 1.1 µM and inactive = higher.

Turning to `NC1CNC(=O)c2c(Cl)sc(Cl)c21` (centres undefined), the GI50 was > 100 µM (inactive) in [1]; 41.4 µM (inactive) in assay [2]; > 100 µM (inactive) in [3]; > 10 µM (inactive) in [4]; > 100 µM (inactive) in assay [5]; over 100 µM in assay [6]. Moreover, the GI50 in [7] is > 100 µM (inactive); in assay [8], > 100 µM (inactive); in assay [9], > 100 µM (inactive); in [10], 78.5 µM (inactive); in [11], > 100 µM (inactive); in assay [12] it was > 100 µM (inactive). In addition, the GI50 in assay [13], in assay [14], in [15], in [16], in assay [17] and in assay [18] was > 100 µM (inactive) throughout. Moreover, in assay [19], the GI50 is > 100 µM (inactive).
`CCCCNC(=O)Nc1c(C(N)=O)c2n(c1C(=O)OCC)CCCCC2`: the GI50 in [1] is > 100 µM (inactive); in assay [2] it was 75.9 µM (inactive); in [3], > 100 µM (inactive); in assay [4] it was > 100 µM (inactive); in [5] it was > 100 µM (inactive); in [6], over 100 µM. The GI50 in assay [7], in [8], in [10], in assay [11], in assay [12] and in [13] was > 100 µM (inactive) throughout. In addition, the GI50 in assay [14], in [16], in [18] and in assay [19] was > 100 µM (inactive) each time.
Regarding `Cn1c2c(c3ccccc31)CC(=O)N1CCCC(C1)CC21OCCO1` (centres undefined), the GI50 in assay [1] was > 100 µM (inactive); in [2], > 100 µM (inactive); in [3] it was > 100 µM (inactive); in [4] it was > 100 µM (inactive); in assay [5], > 100 µM (inactive); in assay [6] it was over 100 µM. Moreover, the GI50 in assay [7], in assay [8], in assay [9], in assay [10], in assay [11] and in assay [12] was > 100 µM (inactive) throughout. Besides, the GI50 in [13] was > 100 µM (inactive); in assay [14], > 100 µM (inactive); in assay [15] it was > 100 µM (inactive); in assay [16], > 100 µM (inactive); in assay [17], 38.2 µM (inactive); in assay [18], > 100 µM (inactive). Also, the GI50 in assay [19] is > 100 µM (inactive).
As for `CCOC1=NC(C(F)(F)F)(C(F)(F)F)N=C(/N=C(/N)N(C)C(C(C)C)P(=O)(OC(C)C)OC(C)C)O1` (centres undefined), the GI50 is > 100 µM (inactive) in assay [1]; 55.3 µM (inactive) in assay [2]; 23.8 µM (inactive) in [4]; > 100 µM (inactive) in assay [5]; 58.7 µM in assay [6]; > 100 µM (inactive) in [7]. Moreover, the GI50 is 44.7 µM (inactive) in assay [8]; > 100 µM (inactive) in [9]; 20.1 µM (inactive) in assay [10]; > 100 µM (inactive) in assay [11]; 83.8 µM (inactive) in assay [12]; 81.5 µM (inactive) in [13]. In addition, the GI50 is 95.3 µM (inactive) in assay [14]; 54.1 µM (inactive) in assay [15]; > 100 µM (inactive) in [16]; 27.9 µM (inactive) in [20]; 76 µM (inactive) in assay [17]; 48.5 µM (inactive) in assay [18]. Besides, the GI50 in assay [19] is > 100 µM (inactive).
In the case of `COc1ccc(/C=N/C23CC4CC(CC(C4)C2)C3)cc1`, the GI50 in [1] was > 100 µM (inactive); in assay [2], > 100 µM (inactive); in [4], > 100 µM (inactive); in [5], > 100 µM (inactive); in assay [6], over 100 µM; in assay [7] it was > 100 µM (inactive). The GI50 in assay [8], in assay [9], in [10], in assay [11], in assay [12] and in assay [13] was > 100 µM (inactive) in each case. The GI50 in assay [14], in assay [15], in assay [16], in [20], in assay [17] and in assay [18] was > 100 µM (inactive) each time. For the same compound, in assay [19], the GI50 was > 10 µM (inactive).
With `CCOC(O)(NC(=O)C(C(F)(F)F)C(F)(F)F)C(F)(F)F` (centres undefined), the GI50 is > 100 µM (inactive) in [1]; > 100 µM (inactive) in [2]; > 100 µM (inactive) in [4]; > 100 µM (inactive) in assay [5]; over 100 µM in assay [6]; > 100 µM (inactive) in assay [7]. The GI50 in assay [8], in assay [9], in assay [10], in [11], in [13] and in [14] was > 100 µM (inactive) throughout. Further, the GI50 in assay [16], in assay [17], in assay [18] and in assay [19] was > 100 µM (inactive) each time.
On to `O=C1Nc2ccc(Br)cc2/C1=N/Nc1ccc([N+](=O)[O-])cc1[N+](=O)[O-]`, for which the GI50 in assay [1] was 10.2 µM (inactive); in [2], 2.86 µM (inactive); in [3] it was 1.98 µM (inactive); in assay [4], 3.02 µM (inactive); in assay [5], 4.8 µM (inactive); in assay [6] it was 3.12 µM. Further, the GI50 was 2.82 µM (inactive) in assay [8]; 5.47 µM (inactive) in assay [9]; 3.44 µM (inactive) in [10]; 3.78 µM (inactive) in assay [11]; 3.91 µM (inactive) in assay [12]; 1.73 µM (inactive) in assay [13]. The GI50 in assay [14] is 2.49 µM (inactive); in assay [15], 3.08 µM (inactive); in assay [16], 2.77 µM (inactive); in [20] it was 2.42 µM (inactive); in assay [17] it was 3.04 µM (inactive); in assay [18], 3.93 µM (inactive). Besides, in assay [19], the GI50 is 2.47 µM (inactive).
On to `[N-]=[N+]=NC(c1cn(C2CC(O)C(CO)O2)c(=O)[nH]c1=O)C(Br)I` (centres undefined), for which the GI50 in [1] is > 100 µM (inactive); in [2] it was > 100 µM (inactive); in assay [3], > 100 µM (inactive); in assay [4] it was > 100 µM (inactive); in assay [5], > 100 µM (inactive); in assay [6] it was over 100 µM. The GI50 in assay [8], in assay [9], in [10], in [11], in assay [12] and in assay [13] was > 100 µM (inactive) in each case. Also, the GI50 in assay [14], in [15], in [16], in assay [20], in assay [17] and in assay [18] was > 100 µM (inactive) in each case. The GI50 in assay [19] is > 100 µM (inactive).
With `CCCCCCCCCCCc1noc2c1C(=O)C(O)CC2` (centres undefined), the GI50 is 27.2 µM (inactive) in [2]; 20.1 µM (inactive) in assay [3]; 25.1 µM (inactive) in [4]; 27.2 µM (inactive) in assay [5]; 20.7 µM in assay [6]; 34.9 µM (inactive) in assay [7]. The GI50 in [8] was 32.8 µM (inactive); in assay [9], 22 µM (inactive); in [10], 22.3 µM (inactive); in assay [11], 18.8 µM (inactive); in [12] it was 21.2 µM (inactive); in assay [13] it was 18.1 µM (inactive). Moreover, the GI50 in [14] is 16.3 µM (inactive); in assay [16], 17.9 µM (inactive); in assay [20], 20.5 µM (inactive); in assay [17] it was 16.1 µM (inactive); in assay [18], 18.9 µM (inactive); in [19], 30.5 µM (inactive).
As to `CC(C)CNC(=O)Cn1c2c(c3ccccc31)CCCC2`, the GI50 is > 100 µM (inactive) in assay [1]; > 100 µM (inactive) in assay [2]; 43.8 µM (inactive) in [3]; 56.4 µM (inactive) in assay [4]; > 100 µM (inactive) in assay [5]; over 100 µM in [6]. The GI50 is 22.2 µM (inactive) in assay [7]; 33 µM (inactive) in assay [8]; 49.7 µM (inactive) in assay [9]; 0.743 µM (active) in assay [10]; > 100 µM (inactive) in assay [11]; 35.8 µM (inactive) in [12]. The GI50 in [13] is 39.5 µM (inactive); in [14], > 100 µM (inactive); in assay [15] it was 82.4 µM (inactive); in [16] it was 20.7 µM (inactive); in assay [17], > 100 µM (inactive); in [18] it was 81.5 µM (inactive). The GI50 in assay [19] was 73.8 µM (inactive).
On to `Cn1nc(-c2ccc(S(=O)(=O)N/C(=N/c3ccc(Cl)cc3)NN)s2)cc1C(F)(F)F`, for which the GI50 was 17.4 µM (inactive) in assay [2]; 20.4 µM (inactive) in [3]; 17.5 µM (inactive) in [5]; 21.8 µM in [6]; 16.4 µM (inactive) in [7]; 18.4 µM (inactive) in assay [8]. Besides, the GI50 is 15 µM (inactive) in assay [9]; 4.06 µM (inactive) in assay [10]; 16.2 µM (inactive) in [11]; 16.2 µM (inactive) in [12]; 18.3 µM (inactive) in assay [13]; 20.3 µM (inactive) in assay [14]. Also, the GI50 is 14.9 µM (inactive) in assay [16], 15.3 µM (inactive) in [17], 19.6 µM (inactive) in assay [18] and 17.1 µM (inactive) in [19].
